The values that follow come from patent publication US20200165257A1, “INHIBITORS OF PHOSPHOINOSITIDE 3-KINASE AND HISTONE DEACETYLASE FOR TREATMENT OF CANCER” (THE UNITED STATES OF AMERICA, AS REPRESENTED BY THE …, priority 2017, published 2020).

Read-outs that look alike come from different tables or passages of the source.

Test [1] relates to Leukemia Cell Line MOLT-4. It counts as cell-based. To be noted: Homo sapiens.
For test [2], the system named is Breast Cancer Cell Line HS 578T. It counts as cell-based. To be noted: Homo sapiens, read-out: inhibition of proliferation.
The subject of test [3] is Ovarian Cell Line OVCAR-3. In words: cells. To be noted: Homo sapiens, OVCAR-3, read-out: inhibition of proliferation.
Test [4] deals with Ovarian Cell Line OVCAR-8. In words: cells. It counts as cell-based. As to conditions: Homo sapiens.
A further test concerns Ovarian Cell Line IGROV1. Type of test: cell-based. To be noted: Homo sapiens.
Test [5] relates to Melanoma Cell Line UACC-62. In words: cells. As to conditions: Homo sapiens. Type of test: cell-based.
For test [6], the system named is Breast Cancer Cell Line BT-549. In words: cells. It counts as cell-based. To be noted: Homo sapiens.
The test system of test [7] is Ovarian Cell Line NCI/ADR-RES. In words: cells. It counts as cell-based. To be noted: Homo sapiens, read-out: inhibition of proliferation.
In test [8] the test system is Leukemia Cell Line CCRF-CEM. The test can be described thus: cells. As to conditions: Homo sapiens, read-out: inhibition of proliferation. It counts as cell-based.
The subject of test [9] is Leukemia Cell Line RPMI-8226. It counts as cell-based. As to conditions: Homo sapiens.
For test [10], the system named is Leukemia Cell Line HL-60(TB). Type of test: cell-based. As to conditions: Homo sapiens.
In test [11] the test system is Breast Cancer Cell Line MDA-MB-468. In words: cells. As to conditions: Homo sapiens, MDA-MB-468, read-out: inhibition of proliferation.
For the next test, the system named is Leukemia Cell Line K-562. Type of test: cell-based. To be noted: Homo sapiens.
Another test has as its target T1, HDAC6 (Homo sapiens, UniProt Q9UBN7).
T1 sequence (Q9UBN7 1-1215): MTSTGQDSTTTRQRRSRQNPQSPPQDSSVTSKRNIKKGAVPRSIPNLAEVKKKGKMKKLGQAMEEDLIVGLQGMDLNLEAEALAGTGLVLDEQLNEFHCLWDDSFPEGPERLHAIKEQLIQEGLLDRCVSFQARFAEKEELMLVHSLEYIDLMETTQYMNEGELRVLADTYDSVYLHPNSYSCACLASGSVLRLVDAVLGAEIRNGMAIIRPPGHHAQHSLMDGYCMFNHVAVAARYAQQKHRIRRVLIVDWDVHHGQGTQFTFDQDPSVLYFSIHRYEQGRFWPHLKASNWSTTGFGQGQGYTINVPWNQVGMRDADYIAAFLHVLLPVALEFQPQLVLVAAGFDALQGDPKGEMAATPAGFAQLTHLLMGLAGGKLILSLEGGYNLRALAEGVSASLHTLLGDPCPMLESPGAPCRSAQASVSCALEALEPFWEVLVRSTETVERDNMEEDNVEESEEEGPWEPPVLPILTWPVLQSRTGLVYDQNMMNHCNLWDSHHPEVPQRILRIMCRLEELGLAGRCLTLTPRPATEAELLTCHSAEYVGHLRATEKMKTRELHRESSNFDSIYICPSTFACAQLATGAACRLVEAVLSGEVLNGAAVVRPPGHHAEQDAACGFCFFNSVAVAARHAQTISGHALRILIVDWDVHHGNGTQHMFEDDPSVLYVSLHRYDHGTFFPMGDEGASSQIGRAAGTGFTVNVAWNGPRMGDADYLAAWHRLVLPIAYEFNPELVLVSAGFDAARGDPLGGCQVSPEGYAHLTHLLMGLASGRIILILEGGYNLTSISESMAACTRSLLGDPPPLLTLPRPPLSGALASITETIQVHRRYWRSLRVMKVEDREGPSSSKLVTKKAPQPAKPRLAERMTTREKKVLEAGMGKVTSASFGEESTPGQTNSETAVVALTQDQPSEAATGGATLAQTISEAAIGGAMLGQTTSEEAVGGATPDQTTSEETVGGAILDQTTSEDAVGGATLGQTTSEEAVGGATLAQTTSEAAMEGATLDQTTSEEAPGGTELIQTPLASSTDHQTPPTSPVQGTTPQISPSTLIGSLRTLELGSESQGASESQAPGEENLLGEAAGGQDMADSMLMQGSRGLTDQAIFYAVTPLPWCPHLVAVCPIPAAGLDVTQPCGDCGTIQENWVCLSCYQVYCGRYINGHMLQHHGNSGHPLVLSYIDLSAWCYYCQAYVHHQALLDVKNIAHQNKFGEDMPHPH
The test can be described thus: HDAC Fluorescent Activity Assay. To be noted: symbols ++ / +; read-out: HDAC6 Inhibition Activity (IC50 class). Type of test: biochemical. As for the experimental part: This protocol is to determine the IC50s or percentage of inhibition values of the test compound against HDACs.
The HDAC Fluorescent Activity Assay is based on the unique Fluorogenic Substrate and Developer combination. […] First, the Fluorogenic Substrate, which comprises an acetylated lysine side chain, is incubated with a purified HDAC enzyme. Deacetylation of the substrate sensitizes the substrate so that, in the second step, treatment with the Developer produces a fluorophore.
Testing compounds were dissolved in 100% DMSO to specific concentration. […]
1. Deliver 2× enzyme in wells of reaction plate except No Enzyme control wells. Add buffer in No En wells.
2. Deliver compounds in 100% DMSO into the enzyme mixture by Acoustic technology (Echo550; nanoliter range). Spin down and pre-incubation.
3. Deliver 2× Substrate Mixture (Fluorogenic HDAC Substrate and co-factor if applicable) in all reaction wells to initiate the reaction. Spin and shake.
4. Incubate for 1-2 hr at 30° C. with seal.
5. Add Developer with Trichostatin A (or TMP269) to stop the reaction and to generate fluorescent color.
6. Fluorescence was read (excitatory, 360; emission, 460) using the EnVision Multilabel
7. Take endpoint reading for analysis after the development reaches plateau.
The percentages of enzyme activity (relative to DMSO controls) and IC50 values were calculated using the GraphPad Prism 4 program based on a sigmoidal dose-response equation.

The next test concerns Leukemia Cell Line SR. In words: cells. It counts as cell-based. As to conditions: Homo sapiens, read-out: inhibition of proliferation.
[12] abbreviates: MOLT-4, read-out: inhibition of proliferation.
[13] abbreviates: IGROV-1, read-out: inhibition of proliferation.
[14] abbreviates: UACC-62, read-out: inhibition of proliferation.
Setting [15] is: BT-549, read-out: inhibition of proliferation.
[16] abbreviates: RPMI-8226, read-out: inhibition of proliferation.
The mark [17] stands for this setting: HL-60, read-out: inhibition of proliferation.
The mark [18] stands for this setting: single dose, 10 uM compound concentration.

As to `CC[C@H](Nc1nc(N)nc(C)c1C#N)c1nc2cccc(NCc3ccc(C(=O)NO)cc3)c2c(=O)n1-c1ccccc1` [Compound XL, (S)-4-(((2-(1-((2-amino-5-cyano-6-methylpyrimidin-4-yl)amino)propyl)-4-oxo-3-phenyl-3,4-dihydroquinazolin-5-yl)amino)methyl)-N-hydroxybenzamide], the inhibition at 10 µM in [1] (setting [12]) was above 50%; in test [2] (Hs-578T), above 50%; in [3], above 50%; in [4] (OVCAR-8, read-out: inhibition of proliferation) it was above 50%; in the test on Ovarian Cell Line IGROV1 (setting [13]), above 50%; in test [5] (setting [14]) it was above 50%. For the same compound, the inhibition at 10 µM was above 50% in test [6] (setting [15]); 25 to 50% in [7]; above 50% in test [8]; above 50% in test [9] (setting [16]); above 50% in [10] (setting [17]); above 50% in test [11].
As usually defined, the IC50 is the midpoint of a concentration-inhibition curve. For the compound `Cc1nc2cccc(NCc3ccc(C(=O)NO)cc3)c2c(=O)n1-c1ccccc1` [Compound LX, N-hydroxy-4-(((2-methyl-4-oxo-3-phenyl-3,4-dihydroquinazolin-5-yl)amino)methyl)benzamide], the inhibition at 10 µM in [1] (MOLT-4, single dose, 10 uM compound concentration, read-out: inhibition of proliferation) is above 50%; in [2] (HS 578T, single dose, 10 uM compound concentration), 25 to 50%; in test [3], above 50%; in test [4] (OVCAR-8, single dose, 10 uM compound concentration, read-out: inhibition of proliferation), above 50%; in the test on Leukemia Cell Line K-562 (K562, K-562, single dose, 10 uM compound concentration, read-out: inhibition of proliferation) it was above 50%; in the test with Ovarian Cell Line IGROV1 (IGROV-1, IGROV1, single dose, 10 uM compound concentration, read-out: inhibition of proliferation), above 50%. Besides, the inhibition at 10 µM in test [5] (UACC-62, single dose, 10 uM compound concentration, read-out: inhibition of proliferation) is above 50%; in test [6] (BT-549, single dose, 10 uM compound concentration, read-out: inhibition of proliferation), 25 to 50%; in test [7] (setting [18]) it was above 50%; in test [8] (setting [18]) it was above 50%; in test [9] (RPMI-8226, single dose, 10 uM compound concentration, read-out: inhibition of proliferation), above 50%; in the test with Leukemia Cell Line SR (SR, single dose, 10 uM compound concentration) it was above 50%. Moreover, the inhibition at 10 µM was above 50% in [10] (HL-60(TB), single dose, 10 uM compound concentration, read-out: inhibition of proliferation) and above 50% in test [11]. The 50% inhibitory concentration (IC50) at HDAC6 was below 100 nM.
For the compound `CC[C@H](Nc1ncnc2[nH]cnc12)c1nc2cccc(NCc3ccc(C(=O)NO)nc3)c2c(=O)n1-c1ccccc1` [V, (S)-5-(((2-(1-((9H-purin-6-yl)amino)propyl)-4-oxo-3-phenyl-3,4-dihydroquinazolin-5-yl)amino)methyl)-N-hydroxypicolinamide], the inhibition at 10 µM in [1] (setting [12]) was above 50%; in test [2] (Hs-578T), above 50%; in the test on Leukemia Cell Line K-562 (K562, read-out: inhibition of proliferation), above 50%; in the test with Ovarian Cell Line IGROV1 (setting [13]) it was 25 to 50%; in test [5] (setting [14]), above 50%; in test [6] (setting [15]), above 50%. The inhibition at 10 µM was 25 to 50% in test [7]; above 50% in [8]; above 50% in test [9] (setting [16]); above 50% in the test with Leukemia Cell Line SR; above 50% in test [10] (setting [17]).
